Assay results: patent US10913712B2, “Tetracycline compounds” (Tetraphase Pharmaceuticals, Inc., priority 2012, dated 2021)
Converted amounts (≈) assume the structure as drawn. Read-outs that look alike come from different tables or passages of the source.

Assays:
[1] = tested on: Klebsiella pneumoniae KP153 (tet(A), MDR, ESBL+); assay: microbe, parasite or virus in culture; details: read-out: MIC KP153 tetA
[2] = tested on: Staphylococcus aureus SA161 (HA-MRSA, tet(M)); assay: MIC assay; type: cell-based
[3] = tested on: PA 884 35151; assay: MIC assay; type: cell-based; details: read-out: MIC PA 884 35151
[4] = tested on: PA 689; assay: MIC assay; type: cell-based; details: read-out: MIC PA 689
[5] = tested on: Klebsiella pneumoniae KP457 (2009 ESBL+, CTX-M, OXA)
[6] = tested on: Klebsiella pneumoniae KP153 (tet(A), MDR, ESBL+)
[7] = tested on: Klebsiella pneumoniae KP109 (ATCC 13883); assay: MIC assay; type: cell-based
[8] = tested on: Enterococcus faecium EF404 (blood isolate, tet(M)); assay: MIC assay; type: cell-based; details: read-out: MIC EF 404 tetM, control compounds
[9] = tested on: Escherichia coli EC107 (ATCC 25922); assay: MIC assay; type: cell-based; details: ATCC25922, read-out: MIC EC 107 25922, control compounds
[10] = tested on: Streptococcus pneumoniae SP160 (tet(M)); assay: MIC assay; type: cell-based

Structure (SMILES) | MIC [1] [µg/mL] | MIC SA 161 tetM ([2]; control compounds) [µg/mL] | MIC ([3]; Table 6, control compounds) [µg/mL] | MIC ([4]; Table 6, control compounds) [µg/mL] | MIC KP 457 CTX-M-15 [5] [µg/mL] | MIC KP 153 tetA [6] [µg/mL] | MIC ([7]; ATCC13883, Table 4, control compounds, read-out: MIC KP109 13883) [µg/mL] | MIC [8] [µg/mL] | MIC ([2]; Staphylococcus aureus, MRSA, read-out: MIC SA 161 tetM, control compounds) [µg/mL] | MIC [3] [µg/mL] | MIC [9] [µg/mL] | MIC [4] [µg/mL] | MIC KP 457 CTX-M-15 ([5]; Table 6, control compounds) [µg/mL] | MIC KP 457 CTX-M-15 ([5]; Table 7, control compounds) [µg/mL] | MIC KP 153 tetA ([6]; Table 5, control compounds) [µg/mL] | MIC ([7]; ATCC13883, read-out: MIC KP109 13883) [µg/mL] | MIC ([10]; read-out: MIC SP 160 tetM, Table 5, control compounds) [µg/mL] | MIC ([10]; read-out: MIC SP 160 tetM, control compounds) [µg/mL]
CN(C)c1ccc(O)c2c1C[C@H]1C[C@H]3[C@H](N(C)C)C(O)=C(C(N)=O)C(=O)[C@@]3(O)C(O)=C1C2=O [Minocycline, minocycline] | 8 (≈ 17.5 µM) | 8 (≈ 17.5 µM) | 1 (≈ 2.19 µM) | 8 (≈ 17.5 µM) | 8 (≈ 17.5 µM) | 8 (≈ 17.5 µM) | 1 (≈ 2.19 µM) |  |  |  |  |  |  |  |  |  |  | 
CN(C)c1cc(NC(=O)CNC(C)(C)C)c(O)c2c1C[C@H]1C[C@H]3[C@H](N(C)C)C(O)=C(C(N)=O)C(=O)[C@@]3(O)C(O)=C1C2=O [Tigecycline, tigecycline] |  |  |  |  |  |  |  | 0.06 (≈ 0.102 µM) | 0.1 (≈ 0.171 µM) | 0.063 (≈ 0.108 µM) | 0.02 (≈ 0.0341 µM) | 1 (≈ 1.71 µM) | 1 (≈ 1.71 µM) | 1 (≈ 1.71 µM) | 1 (≈ 1.71 µM) | 0.125 (≈ 0.213 µM) | 0.2 (≈ 0.341 µM) | 0.03 (≈ 0.0512 µM)
CN(C)[C@@H]1C(O)=C(C(N)=O)C(=O)[C@@]2(O)C(O)=C3C(=O)c4c(O)cccc4C[C@H]3C[C@@H]12 [Sancycline, sancycline] | 32 (≈ 77.2 µM) |  |  |  | 8 (≈ 19.3 µM) |  |  |  |  | 4 (≈ 9.65 µM) |  | 16 (≈ 38.6 µM) |  |  | 32 (≈ 77.2 µM) |  |  | 
